According to paper PMC6240685, “Strong Inhibitory Effect, Low Cytotoxicity and High Plasma Stability of Steroidal Inhibitors of N-Methyl-D-Aspartate Receptors With C-3 Amide Structural Motif” (Frontiers in Pharmacology, 2018):
Like-named read-outs stand apart in the source and are kept apart here.

How the values were obtained:
GluN1/GluN2B receptors = target: T1, GluN1/GluN2B receptors (Rattus norvegicus, UniProt P35439+Q00960); assay: Patch-clamp inhibition of glutamate responses of GluN1/GluN2B receptors in transfected HEK293 cells; type: cell-based
T1 construct: expressed in transfected cells; host or cells: HEK293
T1 sequence (Q00960 27-1482, other chains not shown): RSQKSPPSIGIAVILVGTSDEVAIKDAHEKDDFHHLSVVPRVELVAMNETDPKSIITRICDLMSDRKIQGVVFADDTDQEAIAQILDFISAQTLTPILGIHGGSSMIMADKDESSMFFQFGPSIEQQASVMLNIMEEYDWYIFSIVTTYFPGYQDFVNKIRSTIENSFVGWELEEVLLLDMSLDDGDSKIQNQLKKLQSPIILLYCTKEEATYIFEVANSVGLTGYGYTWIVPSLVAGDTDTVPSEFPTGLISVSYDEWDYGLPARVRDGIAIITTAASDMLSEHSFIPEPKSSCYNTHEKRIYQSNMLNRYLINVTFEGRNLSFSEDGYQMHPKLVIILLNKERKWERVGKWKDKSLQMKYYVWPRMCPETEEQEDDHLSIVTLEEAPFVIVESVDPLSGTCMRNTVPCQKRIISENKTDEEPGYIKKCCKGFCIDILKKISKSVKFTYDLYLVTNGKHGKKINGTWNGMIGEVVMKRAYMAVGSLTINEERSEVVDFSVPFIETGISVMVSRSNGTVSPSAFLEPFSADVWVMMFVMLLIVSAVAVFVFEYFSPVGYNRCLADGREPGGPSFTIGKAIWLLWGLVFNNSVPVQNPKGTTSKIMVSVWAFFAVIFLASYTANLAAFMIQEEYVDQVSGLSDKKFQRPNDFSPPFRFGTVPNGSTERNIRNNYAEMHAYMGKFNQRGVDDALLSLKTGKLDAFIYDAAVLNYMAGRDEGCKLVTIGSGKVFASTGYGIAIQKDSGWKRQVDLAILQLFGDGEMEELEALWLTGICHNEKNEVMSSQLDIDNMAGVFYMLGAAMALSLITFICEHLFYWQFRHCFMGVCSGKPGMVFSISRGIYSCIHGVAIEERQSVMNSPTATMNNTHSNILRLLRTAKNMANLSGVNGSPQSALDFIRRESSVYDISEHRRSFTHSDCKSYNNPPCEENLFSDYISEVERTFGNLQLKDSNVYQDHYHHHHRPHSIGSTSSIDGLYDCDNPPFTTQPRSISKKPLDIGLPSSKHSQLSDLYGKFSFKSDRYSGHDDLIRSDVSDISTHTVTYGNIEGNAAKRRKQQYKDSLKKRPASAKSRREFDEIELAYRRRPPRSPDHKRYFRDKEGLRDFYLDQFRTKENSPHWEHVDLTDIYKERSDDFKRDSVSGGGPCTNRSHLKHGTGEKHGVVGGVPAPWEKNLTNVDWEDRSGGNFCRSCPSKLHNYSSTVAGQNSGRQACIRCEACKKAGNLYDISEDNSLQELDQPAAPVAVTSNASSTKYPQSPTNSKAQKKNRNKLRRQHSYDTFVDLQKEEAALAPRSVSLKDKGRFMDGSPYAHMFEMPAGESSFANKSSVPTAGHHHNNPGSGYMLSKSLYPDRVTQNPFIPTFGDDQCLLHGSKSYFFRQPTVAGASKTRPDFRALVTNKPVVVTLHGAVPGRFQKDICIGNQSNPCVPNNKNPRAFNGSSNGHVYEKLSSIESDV

HepG2 cells [1] = assay: Mitotoxicity, XTT viability in glucose vs galactose medium; conditions: for Glu/Gal index (fold change): 24 h, HepG2, index higher than 3 indicates potential mitochondrial toxicity; for IC50: Homo sapiens, HepG2, 24 h
Experimental: (§1) (A) Hepatotoxicity provoked by compound 4 was assessed after 72 h incubation of HepG2 cells in low glucose medium (5 mM) in the presence of compound 4 (0.25–100 μM). (B) Mitochondrial toxicity was determined after 24 h incubation of HepG2 cells in either high glucose medium (25 mM) or galactose medium (10 mM) in the presence of compound 4 (2.5–150 μM). Cell viabilities were recorded in triplicates in three independent experiments and expressed as percentage of vehicle control ± SD and IC50 values were determined by GraphPad Prism software using following equation: Y = Bottom + (Top–Bottom)/(1 + 10ˆ((LogIC50-X)^∗HillSlope)), where IC50 is the concentration of compound 4 that inhibits cell viability half way between Bottom and Top plateaus, X is compound 4 concentration and HillSlope describes the steepness of the family of curves. […] (C) Concentration-dependent effect on ROS level. HepG2 cells were treated with compound 4 (0.25–100 μM) for 72 h, and then the intracellular level of total ROS in relative fluorescence units (RFU) was detected. The data are presented as the mean ± SD for at least three independent experiments and each experiment was carried out in triplicate. Final concentration of DMSO in samples was 1%. […] Single asterisks (^∗) indicate a significant difference (P < 0.05) compared to 1% DMSO control (one-way ANOVA with Dunnett’s post-test).
(§2) HepG2 cells (ATCC®, United Kingdom) were grown in complete Minimal Essential Medium (EMEM) (5.5 mM glucose) medium, supplemented with 10% (v/v) fetal calf serum, 200 μg/mL of streptomycin, 200 U/mL of penicillin G and 4 mM glutamine. They were cultured under a humidified atmosphere containing 5% CO2 at 37°C.
(§3) The cytotoxicity of the tested compounds was assessed with use of XTT cell proliferation kit II (Roche Diagnostics GmbH, Mannheim, Germany) according to the manufacturer’s instructions. Briefly HepG2 cells were seeded in a 96-well plate at a density of 22,000 cells per well. After 24 h, the tested neurosteroids in a concentration range from 0.5 to 200 μM were added to the culture media and incubated for 72 h before the XTT dye was added. Mitochondrial toxicity was assessed in HepG2 cells using glucose and galactose conditioned media and XTT assay as a read out for cell viability. In brief, cells were seeded onto 96 well, clear bottom tissue culture plates at a density of 22,000 cells/well and left overnight to attach. Six hours prior to the neurosteroids treatment the media was replaced with 100 μL DMEM media containing either glucose (25 mM glucose; 1 mM pyruvate; 2 mM glutamine, 10% FBS) or galactose (10 mM galactose, 1 mM pyruvate, 6 mM glutamine, 10% FBS). After that, the tested neurosteroids in a concentration range from 0.5 to 200 μM were added in the fresh appropriate assay medium (glucose or galactose) and incubated for 24 h before the XTT dye was added. The XTT absorbance was recorded at 495 nm after 1 h incubation with the dye. Compounds were dissolved in DMSO to produce the stock solutions at the concentration of 10 mM, with exception of PAG, 1, 6 (5 mM), and 11 (2.5 mM). Results were expressed as percentages of change in viability compared to appropriate DMSO control. IC50 values were determined by GraphPad Prism version 5.00 for Windows (GraphPad Software, La Jolla, CA, United States). All experiments were done in triplicates in three independent experiments to check the reproducibility.

HepG2 cells [2] = assay: Hepatotoxicity, XTT viability after 72 h; type: cell-based; conditions: Homo sapiens; 72 h, HepG2, 5.5 mM glucose; read-out: Hepatotoxicity IC50, 5.5 mM glucose
Experimental: Then, the cell viability (XTT assay) and reactive oxygen species (ROS) induction were evaluated.
as §1, §2, §3

HepG2 cells [3] = assay: ROS induction (CM-H2DCFDA); type: cell-based; conditions: Homo sapiens, HepG2, 72 h; read-out: ROS induction EC50
Experimental: as §1
The effect of neurosteroids on oxidative stress was determined using general oxidative stress indicator CM-H2DCFDA (Thermo Fisher Scientific, Waltham, MA, United States) according to the manufacturer’s instructions. Briefly HepG2 cells were seeded in a 96-well plate at a density of 13,500 cells per well. After 24 h, the tested neurosteroids were added to the culture media and incubated for 72 h. Subsequently, cells were washed with HBSS, treated with 100 μL of 1 μM CM-H2DCF-DA solution in HBSS and incubated for 1 h in the dark at 37°C. Finally, cells were washed three times with HBSS and the fluorescence was measured using 495 excitation and 527 emission in fluorescence microplate reader (Cytation 3, Winooski, VT, United States). IC50 index values were determined by GraphPad Prism version 5.00 for Windows (GraphPad Software, La Jolla, CA, United States).

[4] = Plasma stability, rat plasma; type: in vitro ADME
[5] = Plasma stability, human plasma; type: in vitro ADME
Experimental: Then, 37.8 μL of stock solution was added to 1400 μL of human plasma, maintained at 37°C. Aliquots (50 μL) withdrawn at 0, 1, 4, 8, and 24 h were analyzed by HPLC. […] The supernatant was transferred to an autosampler vial and 1 μL was injected onto LC-MS system. The samples were analyzed with an Agilent 1260 HPLC (Agilent Technologies) coupled to ESI-TOF Agilent 6530 (Agilent Technologies) with Agilent Jet Stream Technology. Samples were separated on a Waters ACQUITY UPLC CSH Phenyl-Hexyl (100 × 2.1, 130 Å, 1.7 μm) at a flow rate 0.3 ml/min. […] The mass spectrometry instrument was operated in a negative ion mode with a voltage of +3.00 kV applied to the capillary. The temperature, the flow rate of the nitrogen drying gas, the pressure of the nitrogen nebulizing gas, and the flow rate of the sheath gas were set at 325°C, 10 l/min, 40 psi, 390°C, and 11 l/min, respectively. Results are represented as a percentage of a compound remaining in spiked human plasma.

[6] = as repeated in Table 2, read-out: IC50
[7] = current responses to glutamate, HEK293, IC50 from single steroid dose, Hill coefficient fixed at 1.2, read-out: IC50 ± SD
[8] = read-out: Mitotoxicity IC50, 10 mM galactose
[9] = read-out: Mitotoxicity IC50, 25 mM glucose

| SMILES | ΔGexp (GluN1/GluN2B receptors) | IC50 (GluN1/GluN2B receptors; [6]) | IC50 ± SD (GluN1/GluN2B receptors; current responses to glutamate, HEK293, IC50 from single steroid dose, Hill coefficient fixed at 1.2) | IC50 (GluN1/GluN2B receptors; [7]) | Glu/Gal index (fold change) (HepG2 cells [1]) | IC50 (HepG2 cells [1]; [8]) | IC50 (HepG2 cells [1]; [9]) | IC50 (HepG2 cells [2]) | EC50 (HepG2 cells [3]) | remaining at 8 h, 42.1 μg/mL ([4]; rat plasma, 8 h, 37°C, read-out: Plasma stability (% remaining after 8 h), Rat) | remaining at 8 h, 42.1 μg/mL ([5]; human plasma, 8 h, 37°C, read-out: Plasma stability (% remaining after 8 h), Human) | remaining at 8 h, 42.1 μg/mL ([4]; rat, plasma) | remaining at 8 h, 42.1 μg/mL ([5]; human, plasma) | melting point |
| --- | --- | --- | --- | --- | --- | --- | --- | --- | --- | --- | --- | --- | --- | --- |
| C[C@@]12CCC[C@H]1[C@@H]1CC[C@@H]3C[C@H](NC(=O)C(=O)O)CC[C@]3(C)[C@H]1CC2 [Compound 1, 2-(((3R,5R,8S,9S,10S,13S,14S)-10,13-dimethylhexadecahydro-1H-cyclopenta[a]phenanthren-3-yl)amino)-2-oxoacetic acid] | -6.39 kcal/mol | 21.7 µM | least inhibitory activity | 21.7 ± 4.8 µM | 1.97 | 72 ± 9 µM | 142 ± 12 µM | 42 ± 7 µM | 52 ± 6 µM | 100% | 100% | – | – | – |
| C[C@@]12CCC[C@H]1[C@@H]1CC[C@@H]3C[C@H](NC(=O)CC(=O)O)CC[C@]3(C)[C@H]1CC2 [Compound 2, 3-(((3R,5R,8S,9S,10S,13S,14S)-10,13-dimethylhexadecahydro-1H-cyclopenta[a]phenanthren-3-yl)amino)-3-oxopropanoic acid] | -6.59 kcal/mol | – | – | – | 1.32 | 174 ± 12 µM | > 200 µM | 148 ± 14 µM | 165 ± 18 µM | – | – | 100% | 98% | – |
| C[C@@]12CCC[C@H]1[C@@H]1CC[C@@H]3C[C@H](NC(=O)CCC(=O)O)CC[C@]3(C)[C@H]1CC2 [Compound 3, 4-(((3R,5R,8S,9S,10S,13S,14S)-10,13-dimethylhexadecahydro-1H-cyclopenta[a]phenanthren-3-yl)amino)-4-oxobutanoic acid] | -6.78 kcal/mol | 11.2 µM | – | 11.2 ± 7.2 µM | – | > 200 µM | > 200 µM | > 200 µM | > 200 µM | – | – | 100% | 98% | – |
| C[C@@]12CCC[C@H]1[C@@H]1CC[C@@H]3C[C@H](NC(=O)CCCC(=O)O)CC[C@]3(C)[C@H]1CC2 [Compound 4, 5-(((3R,5R,8S,9S,10S,13S,14S)-10,13-dimethylhexadecahydro-1H-cyclopenta[a]phenanthren-3-yl)amino)-5-oxopentanoic acid] | -6.92 kcal/mol | 8.9 µM | – | 8.9 ± 1 µM | – | 11 ± 3 µM | 48 ± 6 µM | 4 ± 0.2 µM | 7 ± 2 µM | – | – | 99% | 96% | – |
| CC(C)(C)OC(=O)N[C@@H](CC(=O)O)C(=O)N[C@@H]1CC[C@@]2(C)[C@H](CC[C@H]3[C@@H]4CCC[C@@]4(C)CC[C@@H]32)C1 [Compound 5, (S)-3-((tert-butoxycarbonyl)amino)-4-(((3R,5R,8S,9S,10S,13S,14S)-10,13-dimethylhexadecahydro-1H-cyclopenta[a]phenanthren-3-yl)amino)-4-oxobutanoic acid] | -7.22 kcal/mol | 5.4 µM | – | 5.4 ± 2.3 µM | – | > 200 µM | > 200 µM | > 200 µM | > 200 µM | – | – | 93% | 100% | – |
| CC(C)(C)OC(=O)N[C@@H](CCC(=O)O)C(=O)N[C@@H]1CC[C@@]2(C)[C@H](CC[C@@H]3[C@@H]4CCC[C@@]4(C)CC[C@@H]32)C1 [Compound 7, (S)-4-((tert-butoxycarbonyl)amino)-5-(((3R,5R,8R,9S,10S,13S,14S)-10,13-dimethylhexadecahydro-1H-cyclopenta[a]phenanthren-3-yl)amino)-5-oxopentanoic acid] | -7.22 kcal/mol | 5.4 µM | – | 5.4 ± 2.4 µM | – | > 200 µM | > 200 µM | > 200 µM | > 200 µM | – | – | 94% | 97% | – |
| C[C@@]12CCC[C@H]1[C@@H]1CC[C@@H]3C[C@H](NC(=O)[C@@H](N)CCC(=O)O)CC[C@]3(C)[C@H]1CC2 [Compound 8, (S)-4-amino-5-(((3R,5R,8S,9S,10S,13S,14S)-10,13-dimethylhexadecahydro-1H-cyclopenta[a]phenanthren-3-yl)amino)-5-oxopentanoic acid] | -8.02 kcal/mol | 1.4 µM | – | 1.4 ± 0.2 µM | 1.04 | 94 ± 14 µM | 98 ± 11 µM | 65 ± 5 µM | 71 ± 9 µM | – | – | 95% | 98% | – |
| CC(C)(C)OC(=O)N[C@@H](CC(=O)N[C@@H]1CC[C@@]2(C)[C@H](CC[C@H]3[C@@H]4CCC[C@@]4(C)CC[C@@H]32)C1)C(=O)O [Compound 9, (S)-2-((tert-butoxycarbonyl)amino)-4-(((3R,5R,8S,9S,10S,13S,14S)-10,13-dimethylhexadecahydro-1H-cyclopenta[a]phenanthren-3-yl)amino)-4-oxobutanoic acid] | -7.33 kcal/mol | 4.5 µM | – | 4.5 ± 0.6 µM | – | > 200 µM | > 200 µM | > 200 µM | > 200 µM | – | – | 99% | 100% | 154 to 157 °C |
| CS(=O)(=O)Nc1ccc([N+](=O)[O-])cc1Oc1ccccc1 [Nimesulide, nimesulide, reference compound] | – | – | – | – | 3.88 | 18 ± 4 µM | 72 ± 8 µM | 2.2 ± 0.3 µM | 3.5 ± 0.5 µM | – | – | – | – | – |
